Source: patent US20250145665A1, “MACROCYCLIC PEPTIDES USEFUL AS MODULATORS OF TNF ALPHA” (Bristol-Myers Squibb Company, priority 2023, published 2025)
Where two headings read alike, the source gives them in different places. Starred links: 1 amine or outer side, 2 acyl side, 3 side chain; linkers in the order of their positions; H or OH if unused. Positions of bridges follow the written chain, without caps; N, C: chain ends. Non-standard residues stand in square brackets, D forms with d. Residues, ends and D or L forms follow the SMILES beside them. *: point of attachment. dArg(ω-(2S)-2,3-diOHpropyl) = N=C(NCCC[C@@H](N)C(=O)O)NC[C@H](O)CO; Bip(4'-NH) = O=C([C@H](Cc1ccc(-c2ccc(N[*:3])cc2)cc1)N[*:1])[*:2]; Bip(4'-NHAc) = CC(=O)Nc1ccc(-c2ccc(C[C@H](N)C(=O)O)cc2)cc1; X70 = O=C([C@H](Cc1ccc(-c2ccc(CN[*:3])cc2)cc1)N[*:1])[*:2]; Ala(imidazol-2-yl) = N[C@@H](Cc1ncc[nH]1)C(=O)O; Ala(morpholin-4-yl) = N[C@@H](CN1CCOCC1)C(=O)O; Benzoyl(3-OCH2COOH) = O=C(O)COc1cccc(C(=O)*)c1; Phe(3-CONH2) = NC(=O)c1cccc(C[C@H](N)C(=O)O)c1; Bip = N[C@@H](Cc1ccc(-c2ccccc2)cc1)C(=O)O; Val(3-OH) = CC(C)(O)[C@H](N)C(=O)O; 2Pal = N[C@@H](Cc1ccccn1)C(=O)O; Cha = N[C@@H](CC1CCCCC1)C(=O)O; Tle = CC(C)(C)[C@H](N)C(=O)O; Aze = O=C(O)[C@@H]1CCN1; Sar = CNCC(=O)O

Biological target: TNFα (Homo sapiens, UniProt P01375)
Sequence (P01375 77-233 limits assumed): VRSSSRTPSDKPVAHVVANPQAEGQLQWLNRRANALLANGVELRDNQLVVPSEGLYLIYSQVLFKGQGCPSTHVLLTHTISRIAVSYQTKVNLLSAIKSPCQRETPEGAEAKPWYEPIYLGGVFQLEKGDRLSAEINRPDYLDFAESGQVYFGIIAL
Experiment: TNF-Induced HEK-Blue Assay
Format: cell-based
[1] = HEK-Blue-CD40L cells, NF-kB-driven secreted alkaline phosphatase reporter, TNFα 0.5 ng/ml, 18 h, read-out: TNF induced HEK-Blue assay IC50 value

IC50 [1] [nM]	Structure (SMILES)	IC50 [nM]
< 50	CC[C@H](C)[C@@H]1NC(=O)[C@@H]2CCCN2C(=O)[C@H]([C@@H](C)CC)NC(=O)[C@@H](CCCNC(=N)N)NC(=O)[C@H](CC(=O)O)NC(=O)[C@H](Cc2ccc(O)cc2)NC(=O)CN(C)C(=O)[C@H](Cc2ccc(-c3ccc(NC(C)=O)cc3)cc2)NC(=O)[C@H](Cc2ccc(-c3ccccc3)cc2)NC(=O)[C@H](C(C)(C)C)NC(=O)CSC[C@@H](C(=O)NCC(N)=O)NC(=O)[C@H](CC(C)C)NC(=O)[C@H](Cc2ccccc2)NC1=O [Example 296] ({CH2CO}-[Tle][Bip][Bip(4'-NHAc)][Sar]YD[dR]IPIFLCG-NH2; thioether N-13)	
< 50	CC(=O)Nc1ccc(-c2ccc(C[C@@H]3NC(=O)[C@H](Cc4ccc(-c5ccccc5)cc4)NC(=O)[C@H](CN4CCOCC4)NC(=O)CSC[C@@H](C(=O)NCC(N)=O)NC(=O)[C@H](CC(C)C)NC(=O)[C@H](Cc4ccc(O)cc4)NC(=O)[C@H](C(C)C)NC(=O)[C@@H]4CCN4C(=O)[C@H](C(C)C)NC(=O)[C@@H](CCCNC(=N)N)NC(=O)[C@H](CC(=O)O)NC(=O)[C@H](Cc4ccccc4)NC(=O)CN(C)C3=O)cc2)cc1 [Example 221] ({CH2CO}-[Ala(morpholin-4-yl)][Bip][Bip(4'-NHAc)][Sar]FD[dR]V[Aze]VYLCG-NH2; thioether N-13)	
50 to 200	CC(C)C[C@@H]1NC(=O)[C@H](Cc2cccc(C(N)=O)c2)NC(=O)[C@H](C(C)C)NC(=O)[C@@H]2CCCN2C(=O)[C@H](C(C)C)NC(=O)[C@@H](CCCNC(=N)NC[C@H](O)CO)NC(=O)[C@H](CC(=O)O)NC(=O)[C@H](Cc2ccc(O)cc2)NC(=O)CN(C)C(=O)[C@H](Cc2ccc(-c3ccc(NC(=O)c4cccc(OCC(=O)O)c4)cc3)cc2)NC(=O)[C@H](Cc2ccc(-c3ccccc3)cc2)NC(=O)[C@H](CN2CCOCC2)NC(=O)CSC[C@@H](C(=O)NCC(N)=O)NC1=O [Example 550] ({CH2CO}-[Ala(morpholin-4-yl)][Bip][Bip(4'-NH)](Benzoyl(3-OCH2COOH))[Sar]YD[dArg(ω-(2S)-2,3-diOHpropyl)]VPV[Phe(3-CONH2)]LCG-NH2; thioether N-13)	
200 to 2000	CC[C@H](C)[C@@H]1NC(=O)[C@@H]2CCCN2C(=O)[C@H]([C@@H](C)CC)NC(=O)[C@@H](CCCNC(=N)N)NC(=O)[C@H](CC(=O)O)NC(=O)[C@H](Cc2ccccc2)NC(=O)CN(C)C(=O)[C@H](Cc2ccc(-c3ccc(CNC(=O)c4cccc(OCC(=O)O)c4)cc3)cc2)NC(=O)[C@H](Cc2ccc(-c3ccccc3)cc2)NC(=O)[C@H](CC2CCCCC2)NC(=O)CSC[C@@H](C(=O)NCC(N)=O)NC(=O)[C@H](CC(C)C)NC(=O)[C@H](Cc2ncc[nH]2)NC1=O [Example 399] ({CH2CO}-[Cha][Bip][X70](Benzoyl(3-OCH2COOH))[Sar]FD[dR]IPI[Ala(imidazol-2-yl)]LCG-NH2; thioether N-13)	

More lines, now with the values behind:

Structure (SMILES)	IC50 [1] [nM]	IC50 [nM]
CC(=O)Nc1ccc(-c2ccc(C[C@@H]3NC(=O)[C@H](Cc4ccc(-c5ccccc5)cc4)NC(=O)[C@H](C(C)(C)O)NC(=O)CSC[C@@H](C(=O)NCC(N)=O)NC(=O)[C@H](CC(C)C)NC(=O)[C@H](CCCNC(=N)N)NC(=O)[C@H](C(C)C)NC(=O)[C@@H]4CCCN4C(=O)[C@H](C(C)C)NC(=O)[C@H](CCCNC(=N)N)NC(=O)[C@H](CC(=O)O)NC(=O)[C@H](Cc4ccc(O)cc4)NC(=O)CN(C)C3=O)cc2)cc1 [Example 193] ({CH2CO}-[Val(3-OH)][Bip][Bip(4'-NHAc)][Sar]YDRVPVRLCG-NH2; thioether N-13)	50 to 200	
CC(C)C[C@@H]1NC(=O)[C@H](Cc2ccc(O)cc2)NC(=O)[C@H](C(C)C)NC(=O)CN(C)C(=O)[C@H](C(C)C)NC(=O)[C@H](CCCNC(=N)N)NC(=O)[C@H](CC(=O)O)NC(=O)[C@@H]2CCCN2C(=O)CN(C)C(=O)[C@H](Cc2ccc(-c3ccccc3)cc2)NC(=O)[C@H](Cc2ccc(-c3ccccc3)cc2)NC(=O)[C@H](CC(N)=O)NC(=O)CSC[C@@H](C(=O)NCC(N)=O)NC1=O [Example 142] ({CH2CO}-N[Bip][Bip][Sar]PDRV[Sar]VYLCG-NH2; thioether N-13)		200 to 2000
CC(=O)Nc1ccc(-c2ccc(C[C@@H]3NC(=O)[C@H](Cc4ccc(-c5ccccc5)cc4)NC(=O)[C@H](Cc4c[nH]c5ccccc45)NC(=O)CSC[C@@H](C(=O)NCC(N)=O)NC(=O)[C@H](CC(C)C)NC(=O)[C@H](Cc4ccc(O)cc4)NC(=O)[C@H](C(C)C)NC(=O)[C@@H]4CCCN4C(=O)[C@H](C(C)C)NC(=O)[C@@H](CCCNC(=N)N)NC(=O)[C@H](CC(=O)O)NC(=O)[C@H](Cc4ccccn4)NC(=O)CN(C)C3=O)cc2)cc1 [Example 197] ({CH2CO}-W[Bip][Bip(4'-NHAc)][Sar][2Pal]D[dR]VPVYLCG-NH2; thioether N-13)	50 to 200	
CC(C)C[C@@H]1NC(=O)[C@H](Cc2ccc(O)cc2)NC(=O)[C@H](C(C)C)NC(=O)[C@@H]2CCN2C(=O)[C@H](C(C)C)NC(=O)[C@@H](CCCNC(=N)N)NC(=O)[C@H](CC(=O)O)NC(=O)[C@@H]2CCCN2C(=O)CN(C)C(=O)[C@H](Cc2ccc(-c3ccccc3)cc2)NC(=O)[C@H](Cc2ccc(-c3ccccc3)cc2)NC(=O)[C@H](CN2CCOCC2)NC(=O)CSC[C@@H](C(=O)NCC(N)=O)NC1=O [Example 82] ({CH2CO}-[Ala(morpholin-4-yl)][Bip][Bip][Sar]PD[dR]V[Aze]VYLCG-NH2; thioether N-13)	200 to 2000	
